# Data published in US9060970B2, “Bridge-helix cap: target and method for inhibition of bacterial RNA polymerase” (priority 2011, dated 2015).
# Starred links: 1 amine or outer side, 2 acyl side, 3 side chain; linkers in the order of their positions; H or OH if unused. Positions of bridges follow the written chain, without caps; N, C: chain ends. Non-standard residues stand in square brackets, D forms with d. Residues, ends and D or L forms follow the SMILES beside them. *: point of attachment. X2 = C[C@H](Oc1ccc([C@H](N[*:1])C(=O)[*:2])cc1)[C@@]1(/C=C/C(=O)[*:3])CO1; X1 = CC(C)[C@H](O)[C@H](C)C(=O)*; aIle = CC[C@@H](C)[C@H](N)C(=O)O; dNMeF = CN[C@H](Cc1ccccc1)C(=O)O; aThr = C[C@H](O)[C@H](N)C(=O)O
# Experiments:
# Format in all cases: cell-based, Escherichia coli
# [1] = tested on: Sal-resistant mutants of E. coli D21f2tolC (rpoC / rpoB substitutions); experiment: Broth microdilution resistance / cross-resistance levels of spontaneous Sal-resistant mutants
# Description: (§1) Isolation of Sal-Resistant Mutants: Spontaneous Sal-Resistant Mutants. E. coli D21f2tolC (6) was cultured to saturation in 5 ml LB broth (7) at 37° C., cultures were centrifuged, and cell pellets (˜3×10^9 cells) were re-suspended in 50 μl LB broth and plated on LB agar (7) containing 1.2 μg/ml Sal (a concentration four times the minimal concentration required to prevent growth of wild-type cells under these conditions), and incubated 24-48 h at 37° C. Sal-resistant mutants were identified by the ability to form colonies on this medium and were confirmed by re-streaking on the same medium.
# (§2) Quantitation of Resistance to Sal. Resistance to Sal was quantified by performing broth microdilution assays. Single colonies were inoculated into 3 ml LB broth, and incubated 3-6 h at 37° C. with shaking. Diluted aliquots (2×10^4 cells in 98 μl LB broth; concentrations determined using OD600=1 for 10^9 cells) were dispensed into wells of a 96-well plate, were supplemented with 2 μl of a 2-fold dilution series of Sal in methanol (final concentrations of […], 0.390, 0.195, 0.0975, 0.0488, 0.0244, 0.0122, and 0.00609 μg/ml) or 2 μl of a solvent blank, and were incubated 16 h at 37° C. with shaking. The minimum inhibitory concentration (MIC) was defined as the lowest tested concentration of Sal that inhibited bacterial growth by 95%.
# Quantitation of Cross-Resistance to Rifampin and CBR703. Cross-resistance levels were determined analogously to resistance levels, using 0.12-0.78 μg/ml of rifampin (Sigma, Inc.) and 0.39-25 μg/ml of CBR703 (Maybridge, Inc.).
# [2] = tested on: D21f2tolC pRL663 and D21f2tolC pRL706 derivatives; experiment: Broth microdilution resistance levels of induced Sal-resistant mutants (plasmid-borne rpoC / rpoB); settings: for resistance level (MIC/MICwild-type): induced mutant
# Description: Isolation of Sal-Resistant Mutants: Induced Sal-Resistant Mutants. E. coli Random mutagenesis of rpoC in plasmid pRL663 and rpoB in plasmid pRL706 was performed as in 24, mutagenenized plasmids were passaged in E. coli XL1-Blue (Stratgene, Inc.) as in 24, mutagenized plasmids were introduced by transformation into E. coli D21f2tolC as in 24, and transformants (˜1×10^4 cells) were applied to LB-agar plates containing 1 μg/ml Sal, 200 μg/ml ampicillin, and 1 mM IPTG, and plates were incubated 16-24 h at 37° C. Sal-resistant mutants were identified by the ability to form colonies on this medium and were confirmed by re-streaking on the same medium.
# as §2
# E. coli D21f2tolC = experiment: Spontaneous resistance frequency by plating on LB agar containing inhibitor
# Text: Sal-Resistant Mutants Map to RNAP-Subunit Genes. To determine whether Sal kills bacteria by inhibiting RNAP, spontaneous Sal-resistant mutants were isolated, and genes for RNAP subunits in Sal-resistant mutants were PCR-amplified and sequenced (FIG. 3A). Spontaneous Sal-resistant mutants were isolated by plating high-density cultures of E. coli D21f2tolC (˜3×10^9 cells per plate) on agar containing Sal and identifying rare resistant colonies (FIG. 3B). For each Sal-resistant mutant, genomic DNA was prepared, and the genes for the largest RNAP subunit and the second-largest RNAP subunit—rpoC encoding RNAP β′ subunit and rpoB encoding RNAP β subunit were PCR-amplified and sequenced (FIG. 3C).
# Co-Administration of Sal and Rifampin Reduces Spontaneous Resistance to Undetectable Levels.
# Co-Administration of Sal and CBR703 Reduces Spontaneous Resistance to Undetectable Levels.
# as §1
# [3] = rpoC (RNAP β′ subunit) 780 Arg→Cys
smiles,measurement,setting,value
"CC[C@@H](C)[C@@H]1NC(=O)[C@H](NC(=O)[C@@H](C)[C@@H](O)C(C)C)[C@H](C)OC(=O)[C@H]2COC(=O)CNC(=O)/C=C/[C@@]3(CO3)[C@H](C)Oc3ccc(cc3)[C@H](NC1=O)C(=O)N(C)[C@H](Cc1ccccc1)C(=O)N[C@@H]([C@H](C)O)C(=O)N2 [Sal, salinamide A] (X1-[dT][aIle][X2][dNMeF][aThr][dS]; ester 1-C; linker 3-6 via G)","resistance to Sal, all analyzed mutants","[1]; all analyzed Sal-resistant mutants (Tables 2, 3)",at least 2 fold
same,resistance level (MIC/MICwild-type),[1]; rpoB (RNAP β subunit) 569 Ile→Ser,>16
same,resistance level (MIC/MICwild-type),[1]; rpoB (RNAP β subunit) 675 Asp→Ala,>16
same,resistance level (MIC/MICwild-type),[1]; rpoB (RNAP β subunit) 677 Asn→His,>16
same,resistance level (MIC/MICwild-type),[1]; rpoB (RNAP β subunit) 677 Asn→Lys,>16
same,resistance level (MIC/MICwild-type),[1]; rpoC (RNAP β′ subunit) 690 Asn→Asp,16
same,resistance level (MIC/MICwild-type),[1]; rpoC (RNAP β′ subunit) 697 Met→Val (one isolate also 1054 Thr→Ala),>16
same,resistance level (MIC/MICwild-type),[1]; rpoC (RNAP β′ subunit) 738 Arg→Cys,>16
same,resistance level (MIC/MICwild-type),[1]; rpoC (RNAP β′ subunit) 738 Arg→His,>16
same,resistance level (MIC/MICwild-type),[1]; rpoC (RNAP β′ subunit) 738 Arg→Pro,>16
same,resistance level (MIC/MICwild-type),[1]; rpoC (RNAP β′ subunit) 738 Arg→Ser,>16
same,resistance level (MIC/MICwild-type),[1]; rpoC (RNAP β′ subunit) 748 Ala→Glu,16
same,resistance level (MIC/MICwild-type),[1]; rpoC (RNAP β′ subunit) 758 Pro→Ser,16
same,resistance level (MIC/MICwild-type),[1]; rpoC (RNAP β′ subunit) 763 Phe→Cys,16
same,resistance level (MIC/MICwild-type),[1]; rpoC (RNAP β′ subunit) 775 Ser→Ala,8
same,resistance level (MIC/MICwild-type),[1]; rpoC (RNAP β′ subunit) 779 Ala→Thr,>16
same,resistance level (MIC/MICwild-type),[1]; rpoC (RNAP β′ subunit) 779 Ala→Val,>16
same,resistance level (MIC/MICwild-type),[1]; [3],>16
same,resistance level (MIC/MICwild-type),[1]; rpoC (RNAP β′ subunit) 783 Leu→Arg,>16
same,"resistance to Sal, thirteen mutants",[1]; thirteen of the Sal-resistant mutants,> 16 fold
same,MIC with wild-type rpoC and wild-type rpoB,"[2]; D21f2tolC pRL663 and D21f2tolC pRL706 derivatives, wild-type plasmid genes",^aAssayed as D21f2tolC pRL663 and D21f2tolC pRL706 derivatives; MIC with wild-type rpoC and wild-type rpoB was 0.098 μg/ml.
same,resistance level (MIC/MICwild-type),[2]; rpoB (RNAP β subunit) 561 Ile→Ser,2
same,resistance level (MIC/MICwild-type),[2]; rpoB (RNAP β subunit) 665 Ala→Glu,8
same,resistance level (MIC/MICwild-type),[2]; rpoB (RNAP β subunit) 680 Leu→Met,4
same,resistance level (MIC/MICwild-type),[2]; rpoC (RNAP β′ subunit) 758 Pro→Thr,4
same,resistance level (MIC/MICwild-type),[2]; [3],8
same,resistance level (MIC/MICwild-type),[2]; rpoC (RNAP β′ subunit) 782 Gly→Cys,8
same,spontaneous resistance frequency,"E. coli D21f2tolC; LB agar, each compound at 4×MIC, colonies counted after 24 h at 37° C.",4×10^−9
same,frequency of spontaneous mutation to Sal-resistance,"E. coli D21f2tolC; ~3×10^9 cells per plate, LB agar with 1.2 μg/ml Sal, 24-48 h at 37° C.",~4 × 10^−9
